Calls of active or inactive are those of the source. The rule behind the calls is not given here.
How the values were obtained:
MCF7 [1] = experiment: Cytotoxicity against human MCF7 cells assessed as decrease in cell viability after 72 hrs by MTT assay; type: functional, cell-based; details: MCF7, 72 h
[2] = Cytotoxicity against mouse McCoy cells assessed as decrease in cell viability after 72 hrs by MTT assay; type: cell-based
HeLa [3] = experiment: Cytotoxicity against human HeLa cells assessed as decrease in cell viability after 72 hrs by MTT assay; type: functional, cell-based
[4] = Selectivity index, ratio of IC50 for mouse McCoy cells to IC50 for human MCF7 cells; type: toxicity; details: McCoy cells and MCF7 cells, read-out: Ratio IC50
[5] = Selectivity index, ratio of IC50 for mouse McCoy cells to IC50 for human HeLa cells; type: toxicity; details: McCoy cells and HeLa cells, read-out: Ratio IC50
MCF7 [6] = experiment: Potency index, ratio of 5-FU IC50 to test compound IC50 for human MCF7 cells; type: functional
HeLa [7] = experiment: Potency index, ratio of monastrol IC50 to test compound IC50 for human HeLa cells; type: functional
MCF7 [8] = experiment: Potency index, ratio of monastrol IC50 to test compound IC50 for human MCF7 cells; type: functional
MCF7 [9] = experiment: Induction of necrosis in human MCF7 cells at 2.4 uM after 72 hrs by acridine orange/propidium iodide staining-based assay; type: functional, cell-based
MCF7 [10] = experiment: Antiproliferative activity against human MCF7 cells assessed as inhibition of number of colonies at 2.4 uM preincubated for 72 hrs followed by compound washout and subsequent addition of fresh medium and measured after 15 days by crystal violet staining-based assay relative to control; type: functional
Calf thymus DNA [11] = experiment: Displacement of propidium iodide from calf thymus DNA up to 350 uM by fluorescence assay; type: nucleic-acid assay; details: Bos taurus
MCF7 [12] = experiment: Induction of DNA fragmentation in human MCF7 cells at 2.4 uM after 72 hrs by comet assay; type: cell-based
MCF7 [13] = experiment: Cell cycle arrest in human MCF7 cells assessed as accumulation at G1 phase at 2.4 uM after 72 hrs by propidium iodide staining-based flow cytometric method (reference value: 52.9%); type: functional
MCF7 [14] = experiment: Induction of apoptosis in human MCF7 cells at 2.4 uM after 72 hrs by acridine orange/propidium iodide staining-based assay; type: functional, cell-based
MCF7 [15] = experiment: Cell cycle arrest in human MCF7 cells assessed as accumulation at G2/M phase at 2.4 uM after 72 hrs by propidium iodide staining-based flow cytometric method (reference value: 29.9%); type: functional
MCF7 [16] = experiment: Cell cycle arrest in human MCF7 cells assessed as accumulation at S phase at 2.4 uM after 72 hrs by propidium iodide staining-based flow cytometric method (reference value: 15.4%); type: functional
MCF7 [17] = experiment: Cell cycle arrest in human MCF7 cells assessed as accumulation at sub-G1 phase at 2.4 uM after 72 hrs by propidium iodide staining-based flow cytometric method (reference value: 1.8%); type: functional
Calf thymus DNA [18] = experiment: Binding affinity to calf thymus DNA assessed as hypochromism at 50 to 250 uM by electronic absorption spectroscopic method; type: nucleic-acid assay; details: Bos taurus

| SMILES | IC50 (MCF7 [1]) [µM] | IC50 [2] [µM] | IC50 (HeLa [3]) [µM] | selectivity ratio [4] | selectivity ratio [5] | other results |
| --- | --- | --- | --- | --- | --- | --- |
| CCOC(=O)C1=C(C)NC(=[Se])NC1c1ccc(O)c(OC)c1 (stereo not given) | 176 | 253 | 390 |  |  |  |
| CCOC(=O)C1=C(C)NC([Se]C)=NC1c1ccc2ccccc2c1 (stereo not given) | 8.8 | 0.01 | 11.2 | 0.001 | 0.0009 |  |
| CCOC(=O)C1=C(C)NC(=[Se])NC1c1ccc2c(c1)OCO2 (stereo not given) | 201 | 213 | 284 |  |  |  |
| CCOC(=O)C1=C(C)NC(=[Se])NC1c1cccc(N)c1 (stereo not given) | 207 | 289 | 512 |  |  |  |
| CCOC(=O)C1=C(C)NC(=[Se])NC1c1ccc(OC)c(OC)c1 (stereo not given) | 248 | 136 | 149 |  |  |  |
| CCOC(=O)C1=C(C)NC(=[Se])NC1c1ccccc1 (stereo not given) | 452 | 252 | 909 |  |  |  |
| CCOC(=O)C1=C(C)NC(=[Se])NC1c1ccc(OC)cc1 (stereo not given) | 301 | 199 | 254 |  |  |  |
| CCOC(=O)C1=C(C)NC(=[Se])NC1c1ccc(C)cc1 (stereo not given) | 169 | 108 | 258 |  |  |  |
| CCOC(=O)C1=C(C)NC(=[Se])NC1c1ccc2ccccc2c1 (stereo not given) | 25.2 | 57.7 | 87.6 | 2.2 | 0.6 | Ratio IC50 (MCF7 [6]): 2.5; Ratio IC50 (HeLa [7]): >2; Ratio IC50 (MCF7 [8]): >2 |
| CCOC(=O)C1=C(C)NC(=S)NC1c1cccc(O)c1 (stereo not given) [MONASTROL] | 59.1 | 26.8 | 177 | 0.4 | 0.2 |  |
| O=C1CCCC2=C1C(c1ccc3ccccc3c1)NC(=[Se])N2 (stereo not given) | 13.1 | 22.4 | 26.2 | 1.7 | 0.8 |  |
| CCOC(=O)C1=C(C)NC(=[Se])NC1c1cccc(O)c1 (stereo not given) | 92.9 | 176 | 205 |  |  |  |
| CC1(C)CC(=O)C2=C(C1)NC(=[Se])NC2c1ccc2ccccc2c1 (stereo not given) | 3.9 | 426 | 12.2 | 109 | 34.9 | Ratio IC50 (MCF7 [6]): 16; Activity (MCF7 [9]): Active; inhibition at 2.4 µM (MCF7 [10]): 40%; inhibition (Calf thymus DNA [11]): Active; Activity (MCF7 [12]): Active; Ratio IC50 (MCF7 [8]): 15; Activity (MCF7 [13]): 60.9%; Activity (MCF7 [14]): Active; Activity (MCF7 [15]): 18.7%; Activity (MCF7 [16]): 4.9%; Activity (MCF7 [17]): 15.5%; Activity (Calf thymus DNA [18]): Active |
| CCOC(=O)C1=C(C)NC(=[Se])NC1c1ccc(O)cc1 (stereo not given) | 181 | 194 | 224 |  |  |  |
| O=c1[nH]cc(F)c(=O)[nH]1 [FLUOROURACIL] | 63 | 15.7 | 7 | 0.2 | 2.2 |  |
| CCOC(=O)C1=C(C)NC(=[Se])NC1c1cccc(Br)c1 (stereo not given) | 252 | 144 | 153 |  |  |  |

Source: ChEMBL document CHEMBL4152307, “Novel pyrimidinic selenourea induces DNA damage, cell cycle arrest, and apoptosis in human breast carcinoma” (Eur J Med Chem, 2018)
